Test results: patent publication US20110207760A1, “SN-38 COMPOSITIONS” (priority 2010, published 2011)

Assay: Pharmacokinetics of SN-38 and SN-38G after i.v. dosing of SN-38 in 40% SBECD
Format: in vivo, Female Sprague-Dawley rats
Conditions: rat, i.v.
Description: Female Sprague-Dawley rats, 4 animals per group received i.v. injections of SN-38 (doses 0.65 mg/kg and 2 mg/kg) in 40% SBECD. The SN-38 solution for the treatment was prepared by the dilution of concentrated composition of the Example 1 with water. The blood plasma samples were collected from each group of animals, extracted using liquid extraction with cold methanol/acetonitrile mixture (1:1 v/v), and analyzed using a HPLC method with fluorescent detection. The results, including levels of SN-38 and SN-38G in plasma and calculated values of area under the curve (AUC) for SN-38 and SN-38G are presented in Tables 5 and 6 below.

## CCc1c2c(nc3ccc(O[C@@H]4O[C@H](C(=O)O)[C@@H](O)[C@H](O)[C@H]4O)cc13)-c1cc3c(c(=O)n1C2)COC(=O)[C@]3(O)CC [SN-38G, SN-38 glucuronide]
Dosing SN-38 0.65 mg/kg in 40% SBECD
  AUC: 275 ng·h/mL
Dosing SN-38 0.65 mg/kg in 40% SBECD, 0.17 h
  Plasma levels: 266.5 ng/mL
Dosing SN-38 0.65 mg/kg in 40% SBECD, 0.5 h
  Plasma levels: 150.7 ng/mL
Dosing SN-38 0.65 mg/kg in 40% SBECD, 0.75 h
  Plasma levels: 97.1 ng/mL
Dosing SN-38 0.65 mg/kg in 40% SBECD, 1 h
  Plasma levels: 61.5 ng/mL
Dosing SN-38 0.65 mg/kg in 40% SBECD, 3 h
  Plasma levels: 15.7 ng/mL
Dosing SN-38 0.65 mg/kg in 40% SBECD, 6 h
  Plasma levels: 6.0 ng/mL
Dosing SN-38 2 mg/kg in 40% SBECD
  AUC: 1085 ng·h/mL
Dosing SN-38 2 mg/kg in 40% SBECD, 0.17 h
  Plasma levels: 1282.0 ng/mL
Dosing SN-38 2 mg/kg in 40% SBECD, 0.5 h
  Plasma levels: 747.7 ng/mL
Dosing SN-38 2 mg/kg in 40% SBECD, 0.75 h
  Plasma levels: 289.8 ng/mL
Dosing SN-38 2 mg/kg in 40% SBECD, 1 h
  Plasma levels: 239.9 ng/mL
Dosing SN-38 2 mg/kg in 40% SBECD, 3 h
  Plasma levels: 27.6 ng/mL
Dosing SN-38 2 mg/kg in 40% SBECD, 6 h
  Plasma levels: 18.5 ng/mL
